Where two headings read alike, the source gives them in different places.
Experiments:
[1] = system: RS4;11 cells; test: RS4;11 cell viability, CCK-8 assay; assay type: cell-based; conditions: Homo sapiens, RS4-11, 96 h, CCK-8, 4 days, read-out: RS4, 11 IC50 (Bcl-2 dependent)
Experimental: RS4;11 cells were obtained from American Type Culture Collection (ATCC). They were used within three months of thawing fresh vials. Cells were maintained in the recommended culture medium with 10% FBS at 37° C. and an atmosphere of 5% CO2.
The effect of representative Compounds of the Disclosure on cell viability was determined using Cell Counting Kit-8 (CCK-8) assay (Dojindo, Rockville, Md.) according to the manufacturer's instructions. 200 μL of a RS4;11 cell suspension (10000 cells/well) in culture medium were seeded into 96-well plates and cultured overnight. Each tested compound was serially diluted in culture medium, and 20 μL of the compound dilution was added to the corresponding well of the cell plate. After the addition of the tested compound, the cells were incubated at 37° C. in an atmosphere of 5% CO2 for 4 days. At the end of 4 days, 10 μL of CCK-8 solution was added to each well of the plate and incubated for 1-4 hours. The plates were read at 450 nm on the microplate spectrophotometer (Epoch2, BioTek). The readings were normalized to the vehicle cells, and the IC50 was calculated by nonlinear regression analysis using GraphPad Prism 5 software.

[2] = system: MV4;11 cell line; test: MV4;11 inhibition; assay type: cell-based
[3] = Pharmacokinetics in rats; assay type: in vivo
Experimental: The pharmacokinetics of ABT-199 and representative Compounds of the Disclosure were evaluated in rats at an IV dose of 2 mg/kg and an oral dose of 20 mg/kg.

| IC50 [1] [µM] | IC50 ([2]; Homo sapiens, MV4-11) [µM] | Compound | other results |
| --- | --- | --- | --- |
| 0.019 | 0.0546 | O=C(NS(=O)(=O)C1=CC2C(=O)N(C3CCOCC3)CC2C([N+](=O)[O-])=C1)c1ccc(N2CCN(CC3=C(c4ccc(Cl)cc4)CC4(CCC4)CC3)CC2)cc1Oc1cnc2[nH]ccc2c1 (stereo not drawn) [compound 23, 2-((1H-pyrrolo[2,3-b]pyridin-5-yl)oxy)-4-(4-((6-(4-chlorophenyl)spiro[3.5]non-6-en-7-yl)methyl)piperazin-1-yl)-N-((7-nitro-3-oxo-2-(tetrahydro-2H-pyran-4-yl)-2,3,3a,7a-tetrahydro-1H-isoindol-5-yl)sulfonyl)benzamide] |  |
| 0.034 | 0.116 | COCCOCCNc1ccc(S(=O)(=O)NC(=O)c2ncc(N3CCN(CC4=C(c5ccc(Cl)cc5)CC5(CCC5)CC4)CC3)cc2Oc2cnc3[nH]ccc3c2)cc1[N+](=O)[O-] [compound 31, 3-((1H-pyrrolo[2,3-b]pyridin-5-yl)oxy)-5-(4-((6-(4-chlorophenyl)spiro[3.5]non-6-en-7-yl)methyl)piperazin-1-yl)-N-((4-((2-(2-methoxyethoxy)ethyl)amino)-3-nitrophenyl)sulfonyl)picolinamide] |  |
| 0.019 | 0.0225 | O=C(NS(=O)(=O)c1ccc(NCC2CCOCC2)c([N+](=O)[O-])c1)c1ncc(N2CCN(CC3=C(c4ccc(Cl)cc4)CC4(CCC4)CC3)CC2)cc1Oc1cnc2[nH]ccc2c1 [compound 30, 3-((1H-pyrrolo[2,3-b]pyridin-5-yl)oxy)-5-(4-((6-(4-chlorophenyl)spiro[3.5]non-6-en-7-yl)methyl)piperazin-1-yl)-N-((3-nitro-4-(((tetrahydro-2H-pyran-4-yl)methyl)amino)phenyl)sulfonyl)picolinamide] |  |
| 7.16 |  | O=C(NS(=O)(=O)c1cc([N+](=O)[O-])c(NC[C@H]2COCCO2)cc1F)c1ccc(N2CCN(CC3=C(c4ccc(Cl)cc4)CC4(CCC4)CC3)CC2)cc1Oc1cnc2[nH]ccc2c1 [Cpd. No. 44, (S)-N-((4-(((1,4-dioxan-2-yl)methyl)amino)-2-fluoro-5-nitrophenyl)sulfonyl)-2-((1H-pyrrolo[2,3-b]pyridin-5-yl)oxy)-4-(4-((6-(4-chlorophenyl)spiro[3.5]non-6-en-7-yl)methyl)piperazin-1-yl)benzamide] |  |
| 1.09 | 5.15 | O=C(NS(=O)(=O)c1cc([N+](=O)[O-])n(CC2CCOCC2)c1)c1ccc(N2CCN(CC3=C(c4ccc(Cl)cc4)CC4(CCC4)CC3)CC2)cc1Oc1cnc2[nH]ccc2c1 [Cpd. No. 25, 2-((1H-pyrrolo[2,3-b]pyridin-5-yl)oxy)-4-(4-((6-(4-chlorophenyl)spiro[3.5]non-6-en-7-yl)methyl)piperazin-1-yl)-N-((5-nitro-1-((tetrahydro-2H-pyran-4-yl)methyl)-1H-pyrrol-3-yl)sulfonyl)benzamide] |  |
| 0.013 | 0.0444 | O=C(NS(=O)(=O)c1ccc(NC[C@H]2COCCO2)c([N+](=O)[O-])c1)c1ccc(N2CCN(CC3=C(c4ccc(Cl)cc4)CC4(CCC4)CC3)CC2)c(F)c1Oc1cnc2[nH]ccc2c1 [compound 36, (S)-N-((4-(((1,4-dioxan-2-yl)methyl)amino)-3-nitrophenyl)sulfonyl)-2-((1H-pyrrolo[2,3-b]pyridin-5-yl)oxy)-4-(4-((6-(4-chlorophenyl)spiro[3.5]non-6-en-7-yl)methyl)piperazin-1-yl)-3-fluorobenzamide] |  |
| 0.611 | 3.6 | COCCn1cc(S(=O)(=O)NC(=O)c2ccc(N3CCN(CC4=C(c5ccc(Cl)cc5)CC5(CCC5)CC4)CC3)cc2Oc2cnc3[nH]ccc3c2)cc1[N+](=O)[O-] [compound 35, 2-((1H-pyrrolo[2,3-b]pyridin-5-yl)oxy)-4-(4-((6-(4-chlorophenyl)spiro[3.5]non-6-en-7-yl)methyl)piperazin-1-yl)-N-((1-(2-methoxyethyl)-5-nitro-1H-pyrrol-3-yl)sulfonyl)benzamide] |  |
| 0.028 |  | O=C(NS(=O)(=O)c1ccc(NCC2CCOCC2)c([N+](=O)[O-])c1)c1ccc(C2=CCN(CC3=C(c4ccc(Cl)cc4)CC4(CC3)COC4)CC2)cc1Oc1cnc2[nH]ccc2c1 [compound 9, 2-((1H-pyrrolo[2,3-b]pyridin-5-yl)oxy)-4-(1-((6-(4-chlorophenyl)-2-oxaspiro[3.5]non-6-en-7-yl)methyl)-1,2,3,6-tetrahydropyridin-4-yl)-N-((3-nitro-4-(((tetrahydro-2H-pyran-4-yl)methyl)amino)phenyl)sulfonyl)benzamide] |  |
| 0.022 |  | O=C(NS(=O)(=O)c1ccc(NC[C@@H]2COCCO2)c([N+](=O)[O-])c1)c1ccc(C2=CCN(CC3=C(c4ccc(Cl)cc4)CC4(CC3)COC4)CC2)cc1Oc1cnc2[nH]ccc2c1 [Cpd. No. 5, (R)-N-((4-(((1,4-dioxan-2-yl)methyl)amino)-3-nitrophenyl)sulfonyl)-2-((1H-pyrrolo[2,3-b]pyridin-5-yl)oxy)-4-(1-((6-(4-chlorophenyl)-2-oxaspiro[3.5]non-6-en-7-yl)methyl)-1,2,3,6-tetrahydropyridin-4-yl)benzamide] |  |
|  |  | CC1(C)CCC(CN2CCN(c3ccc(C(=O)NS(=O)(=O)c4ccc(NCC5CCOCC5)c([N+](=O)[O-])c4)c(Oc4cnc5[nH]ccc5c4)c3)CC2)=C(c2ccc(Cl)cc2)C1 [ABT-199, Venetoclax, reference compound] | AUC0-∞ IV ([3]; IV 2 mg/kg): 5446 n · gh/mL; AUC0-∞ PO ([3]; oral 20 mg/kg): 20812 n · gh/mL; F(AUC0-t) ([3]; oral 20 mg/kg vs IV 2 mg/kg): 38.2%; MRT inf ([3]; rat, in vivo, IV 2 mg/kg): 1.23 h; AUC(0-t) ([3]; rat, in vivo, IV 2 mg/kg, read-out: AUC0-t IV): 5440 ng·h/mL; clearance ([3]; rat, in vivo, IV 2 mg/kg, read-out: CL (iv) (converted)): 6.57 mL/min/kg; Cmax ([3]; rat, in vivo, IV 2 mg/kg, read-out: Cmax IV): 8740 ng/mL; Tmax ([3]; rat, in vivo, IV 2 mg/kg, read-out: Tmax IV): 0.083 h; Vd ([3]; rat, in vivo, IV 2 mg/kg, read-out: Vss (iv)): 0.496 L/kg; half-life ([3]; rat, in vivo, IV 2 mg/kg, read-out: t1/2 IV (converted)): 4.32 h; AUC(0-t) ([3]; rat, in vivo, oral 20 mg/kg, read-out: AUC0-t PO): 20800 ng·h/mL; Cmax ([3]; rat, in vivo, oral 20 mg/kg, read-out: Cmax PO): 6000 ng/mL; Tmax ([3]; rat, in vivo, oral 20 mg/kg, read-out: Tmax PO): 1.67 h; half-life ([3]; rat, in vivo, oral 20 mg/kg, read-out: t1/2 PO (converted)): 3.22 h |
| 1.38 |  | O=C(NS(=O)(=O)c1ccc(NCC2CCOCC2)c([N+](=O)[O-])c1)c1ccc(N2CCN(CC3=C(c4ccc(Cl)cc4)CC4(CCC4)CC3)CC2)nc1Oc1cnc2[nH]ccc2c1 [compound 32, 2-((1H-pyrrolo[2,3-b]pyridin-5-yl)oxy)-6-(4-((6-(4-chlorophenyl)spiro[3.5]non-6-en-7-yl)methyl)piperazin-1-yl)-N-((3-nitro-4-(((tetrahydro-2H-pyran-4-yl)methyl)amino)phenyl)sulfonyl)nicotinamide] |  |
|  |  | O=C(NS(=O)(=O)c1ccc(NC[C@H]2COCCO2)c([N+](=O)[O-])c1)c1cc(F)c(N2CCN(CC3=C(c4ccc(Cl)cc4)CC4(CCC4)CC3)CC2)cc1Oc1cnc2[nH]ccc2c1 [compound 26, (S)-N-((4-(((1,4-dioxan-2-yl)methyl)amino)-3-nitrophenyl)sulfonyl)-2-((1H-pyrrolo[2,3-b]pyridin-5-yl)oxy)-4-(4-((6-(4-chlorophenyl)spiro[3.5]non-6-en-7-yl)methyl)piperazin-1-yl)-5-fluorobenzamide] | IC50 [2]: 6.71 µM |
|  | 243 | O=C(NS(=O)(=O)c1cc([N+](=O)[O-])n(CCC2CCOCC2)c1)c1ccc(N2CCN(CC3=C(c4ccc(Cl)cc4)CC4(CCC4)CC3)CC2)cc1Oc1cnc2[nH]ccc2c1 [compound 24, 2-((1H-pyrrolo[2,3-b]pyridin-5-yl)oxy)-4-(4-((6-(4-chlorophenyl)spiro[3.5]non-6-en-7-yl)methyl)piperazin-1-yl)-N-((5-nitro-1-(2-(tetrahydro-2H-pyran-4-yl)ethyl)-1H-pyrrol-3-yl)sulfonyl)benzamide] |  |

| Compound | IC50 [1] [µM] | IC50 ([2]; Homo sapiens, MV4-11) [µM] | other results |
| --- | --- | --- | --- |
| O=C(NS(=O)(=O)c1ccc(NC[C@@H]2COCCO2)c([N+](=O)[O-])c1)c1ccc(N2CCN(CC3=C(c4ccc(Cl)cc4)CC4(CCC4)CC3)CC2)cc1Oc1cnc2[nH]ccc2c1 [compound 13, (R)-N-((4-(((1,4-dioxan-2-yl)methyl)amino)-3-nitrophenyl)sulfonyl)-2-((1H-pyrrolo[2,3-b]pyridin-5-yl)oxy)-4-(4-((6-(4-chlorophenyl)spiro[3.5]non-6-en-7-yl)methyl)piperazin-1-yl)benzamide] | 0.0028 |  |  |
| O=C(NS(=O)(=O)c1cc([N+](=O)[O-])c2[nH]c(-c3ccncc3)nc2c1)c1ccc(N2CCN(CC3=C(c4ccc(Cl)cc4)CC4(CCC4)CC3)CC2)cc1Oc1cnc2[nH]ccc2c1 [compound 66, 2-((1H-pyrrolo[2,3-b]pyridin-5-yl)oxy)-4-(4-((6-(4-chlorophenyl)spiro[3.5]non-6-en-7 yl)methyl)piperazin-1-yl)-N-((7-nitro-2-(pyridin-4-yl)-1H-benzo[d]imidazol-5-yl)sulfonyl)benzamide] | 0.243 | > 1000 |  |
| O=C(NS(=O)(=O)c1ccc(NC[C@@H]2COCCO2)c([N+](=O)[O-])c1)c1ccc(N2CCN(CC3=C(c4ccc(Cl)cc4)CC4(CC3)COC4)CC2)cc1Oc1cnc2[nH]ccc2c1 [compound 8, (R)-N-((4-(((1,4-dioxan-2-yl)methyl)amino)-3-nitrophenyl)sulfonyl)-2-((1H-pyrrolo[2,3-b]pyridin-5-yl)oxy)-4-(4-((6-(4-chlorophenyl)-2-oxaspiro[3.5]non-6-en-7-yl)methyl)piperazin-1-yl)benzamide] | 0.0037 |  |  |

From patent US10221174B2, “N-(phenylsulfonyl)benzamides and related compounds as BCL-2 inhibitors” (THE REGENTS OF THE UNIVERSITY OF MICHIGAN, priority 2016, dated 2019)
